Counter-ions that a name gives are not always drawn.

One experiment addresses T1, JH2 domain of human Tyk2 (Homo sapiens, UniProt P29597).
T1 construct: 10×His-tagged TYK2 JH2 domain (amino acid 575-876)
Briefly: JH2 biochemical assay (TR-FRET probe displacement). The experiment is classed as binding. The settings on record: JH2 biochemical assay. The procedure, abridged:
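10×His-tagged human TYK2 JH2 (aa 575-876, 2 nM) incubated 60 min with 2 nM fluorescent probe, 0.1 nM Tb anti-His antibody and compound (10-point 3-fold series from […] top). TR-FRET 520/495 nm ratio, falling with probe displacement, normalized and fitted to a 4-parameter logistic for IC50.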
On the technique in general: Time-resolved FRET reads energy transfer from a long-lived donor to a nearby acceptor.

Experiment [1] concerns Tyk2 kinase activity on STAT4. Briefly: pSTAT4 cell assay (MSD, NK92 cells). It counts as cell-based. The note with it: compounds 1 hr, stimulated 15 minutes. The procedure, abridged:
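Serum-starved NK92 cells were preincubated 1 hr with compound (10-point, four-fold dilutions from 10 μM), then stimulated with 30 ng/mL IL2 for 15 minutes. Lysates were read on an MSD plate assay using anti-STAT4 antibodies, and IC50 came from a 4-parameter logistic fit of normalized percent activity.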

T1 sequence (P29597 575-876): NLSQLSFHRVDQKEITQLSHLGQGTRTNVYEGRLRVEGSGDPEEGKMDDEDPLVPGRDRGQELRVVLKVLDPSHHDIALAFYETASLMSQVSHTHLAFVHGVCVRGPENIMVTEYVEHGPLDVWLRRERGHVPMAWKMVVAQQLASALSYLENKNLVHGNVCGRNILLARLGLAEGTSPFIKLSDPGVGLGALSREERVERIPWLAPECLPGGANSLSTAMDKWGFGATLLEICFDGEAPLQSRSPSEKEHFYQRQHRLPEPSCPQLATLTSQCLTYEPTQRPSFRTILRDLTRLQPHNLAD

`CC(=O)Nc1cc2c(cn1)C1(CC1)CN2c1cc([C@H]2C[C@H](C#N)C2)nc(C(C)(F)F)n1` [Example 75, N-(1′-(6-((1r,3r)-3-cyanocyclobutyl)-2-(1,1-difluoroethyl)pyrimidin-4-yl)-1′,2′-dihydrospiro[cyclopropane-1,3′-pyrrolo[3,2-c]pyridin]-6′-yl)acetamide or N-(1′-(6-((1s,3s)-3-cyanocyclobutyl)-2-(1,1-difluoroethyl)pyrimidin-4-yl)-1′,2′-dihydrospiro[cyclopropane-1,3′-pyrrolo[3,2-c]pyridin]-6′-yl)acetamide]: the IC50 at JH2 domain of human Tyk2 is no more than 10 nM; in experiment [1], 100 to 1000 nM.

On to `CC(=O)Nc1cc2c(cn1)C1(CC1)CN2c1nc(C(C)(F)F)cs1` [Example 79, N-(1′-(4-(1,1-difluoroethyl)thiazol-2-yl)-1′,2′-dihydrospiro[cyclopropane-1,3′-pyrrolo[3,2-c]pyridin]-6′-yl)acetamide trifluoroacetate], for which the IC50 was 10 to 100 nM on JH2 domain of human Tyk2 and no less than 1000 nM in experiment [1].

For the compound `CC(=O)Nc1cc2c(cn1)C1(CC1)CN2c1nc(C)c(C)s1` [Example 80, N-(1′-(4,5-dimethylthiazol-2-yl)-1′,2′-dihydrospiro[cyclopropane-1,3′-pyrrolo[3,2-c]pyridin]-6′-yl)acetamide], the IC50 at JH2 domain of human Tyk2 is 10 to 100 nM; in experiment [1], no less than 1000 nM.

Regarding `CC(=O)Nc1cc2c(cn1)C1(CC1)CN2c1nc(C2CCCOC2)cs1` (centres unmarked) [Example 81, N-(1′-(4-(tetrahydro-2H-pyran-3-yl)thiazol-2-yl)-1′,2′-dihydrospiro[cyclopropane-1,3′-pyrrolo[3,2-c]pyridin]-6′-yl)acetamide trifluoroacetate], the figures for the IC50 (on JH2 domain of human Tyk2; in experiment [1]) were 10 to 100 nM and no less than 1000 nM, respectively.

In the case of `CC(=O)Nc1cc2c(cn1)C1(CC1)CN2c1nc(C2CCOC2)c(C)s1` (centres unmarked) [Example 82, N-(1′-(5-methyl-4-(tetrahydrofuran-3-yl)thiazol-2-yl)-1′,2′-dihydrospiro[cyclopropane-1,3′-pyrrolo[3,2-c]pyridin]-6′-yl)acetamide trifluoroacetate], the IC50 is no more than 10 nM at JH2 domain of human Tyk2 and 100 to 1000 nM in experiment [1].

As for `COCCOc1cc(N2CC3(CC3)c3cnc(NC(C)=O)cc32)nc(C(C)(F)F)c1` [Example 86, N-(1′-(6-(1,1-difluoroethyl)-4-(2-methoxyethoxy)pyridin-2-yl)-1′,2′-dihydrospiro[cyclopropane-1,3′-pyrrolo[3,2-c]pyridin]-6′-yl)acetamide], the IC50 (at JH2 domain of human Tyk2; in experiment [1]) was no more than 10 nM each time.

Regarding `CCC(=O)Nc1cc2c(cn1)C1(CC1)CN2c1ccnc(C(C)(F)F)n1` [Example 89, N-(1′-(2-(1,1-difluoroethyl)pyrimidin-4-yl)-1′,2′-dihydrospiro[cyclopropane-1,3′-pyrrolo[3,2-c]pyridin]-6′-yl)propionamide], the IC50 was no more than 10 nM at JH2 domain of human Tyk2 and 100 to 1000 nM in experiment [1].

As for `COCCC(=O)Nc1cc2c(cn1)C1(CC1)CN2c1ccnc(C(C)(F)F)n1` [Example 91, N-(1′-(2-(1,1-difluoroethyl)pyrimidin-4-yl)-1′,2′-dihydrospiro[cyclopropane-1,3′-pyrrolo[3,2-c]pyridin]-6′-yl)-3-methoxypropanamide], the IC50 was 10 to 100 nM on JH2 domain of human Tyk2 and no less than 1000 nM in experiment [1].

Take `CC(=O)Nc1cc2c(cn1)C1(CC1)CN2c1cccc(S(C)(=O)=O)n1` [Example 93, N-(1′-(6-(methylsulfonyl)pyridin-2-yl)-1′,2′-dihydrospiro[cyclopropane-1,3′-pyrrolo[3,2-c]pyridin]-6′-yl)acetamide]: the IC50 (at JH2 domain of human Tyk2; in experiment [1]) was no more than 10 nM in each case.

Turning to `CC(=O)Nc1cc2c(cn1)C1(CC1)CN2c1ccccn1` [Example 94, N-(1′-(pyridin-2-yl)-1′,2′-dihydrospiro[cyclopropane-1,3′-pyrrolo[3,2-c]pyridin]-6′-yl)acetamide], the IC50 on JH2 domain of human Tyk2 is 100 to 1000 nM; in experiment [1] it was no less than 1000 nM.

A word on the IC50: it is the midpoint of a concentration-inhibition curve. A low value points to inhibition by little substance.

Source of the values: patent publication US20260258032A1, “TYROSINE KINASE 2 INHIBITORS AND USES THEREOF” (BIOGEN MA INC., priority 2022, published 2026).
